Experiment: Saturation concentration of CBD in adhesive matrix (turbidity / flux plateau)
Type: physicochemical

For `C=C(C)[C@@H]1CCC(C)=C[C@H]1c1c(O)cc(CCCCC)cc1O` [CBD, cannabidiol], the “Saturation concentration of CBD in acrylate adhesive Durotak 87-2287” value (Durotak 87-2287 adhesive matrix) was 30% and the “Saturation concentration of CBD in PIB adhesive” value (un-tackified PIB adhesive matrix) was 12%.

— patent publication US20210228497A1, “New Medical Devices, Delivery Vehicles and Manufacturing Thereof” (Remy Biosciences, Inc., priority 2018, published 2021)
